Measured values taken from patent US8242118B2, “Arylsulfonamide derivatives for use as CCR3 antagonists in the treatment of inflammatory and immunological disorders” (Axikin Pharmaceuticals Inc., priority 2001, dated 2012).
pIC50: −log10 of the molar value. Counter-ions that a name gives are not always drawn.

target: T1, Human CCR3 (Homo sapiens, UniProt P51677); assay: Calcium mobilization assay, eotaxin-stimulated; format: cell-based; conditions: human CCR3-transformed K562 cells, 10 nM eotaxin; compounds of about 40 to 90% purity; read-out: Activity grade Ca2+ (IC50 class)
T1 construct: The cloned CCR3 cDNA was constructed with pcDNA3 vector and transfected into a IC562 cell line; expressed in transfected cells
T1 sequence (P51677 1-355): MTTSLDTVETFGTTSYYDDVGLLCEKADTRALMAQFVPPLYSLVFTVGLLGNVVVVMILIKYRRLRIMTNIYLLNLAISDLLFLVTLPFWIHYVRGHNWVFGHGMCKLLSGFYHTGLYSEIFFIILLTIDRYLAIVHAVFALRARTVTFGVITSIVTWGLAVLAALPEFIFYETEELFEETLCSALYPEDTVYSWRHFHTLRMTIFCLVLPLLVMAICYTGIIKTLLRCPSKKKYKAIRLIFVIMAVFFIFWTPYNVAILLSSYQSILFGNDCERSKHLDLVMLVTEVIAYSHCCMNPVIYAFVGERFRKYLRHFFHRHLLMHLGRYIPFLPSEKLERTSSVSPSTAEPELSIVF
In short: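 Eotaxin (10 nM final) triggered calcium flux, monitored 60 s with Fluo-3AM, in butyrate-pretreated (5 mM, 20–24 h) CCR3-transfected K562 cells. Compounds preincubated 10 min; percent inhibition per concentration yielded IC50.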

Row | pIC50 | Compound
1 | < 5.00 | Cc1cc(C)cc(Oc2ccc([N+](=O)[O-])cc2S(=O)(=O)N2CCN(C(=O)OC(C)(C)C)CC2)c1 [Example 1-1, tert-butyl 4-{[2-(3,5-dimethylphenoxy)-5-nitrophenyl]sulfonyl}-1-piperazinecarboxylate]
2 | > 6.00 | Cc1cc(C)cc(Oc2ccc([N+](=O)[O-])cc2S(=O)(=O)N2CCNCC2)c1 [Example 1-2, 1-{[2-(3,5-dimethylphenoxy)-5-nitrophenyl]sulfonyl}piperazine hydrochloride]
3 | > 6.00 | Cl.O=[N+]([O-])c1ccc(Oc2cc(F)cc(F)c2)c(S(=O)(=O)N2CCNCC2)c1 [Example 1-4]
4 | < 5.00 | COc1cc(OC)cc(Oc2ccc([N+](=O)[O-])cc2S(=O)(=O)N2CCNCC2)c1.Cl [Example 1-5]
5 | > 6.00 | Cl.O=[N+]([O-])c1ccc(Oc2cc(C(F)(F)F)cc(C(F)(F)F)c2)c(S(=O)(=O)N2CCNCC2)c1 [Example 1-6]
6 | < 5.00 | CC(C)(C)c1cc(Oc2ccc([N+](=O)[O-])cc2S(=O)(=O)N2CCNCC2)cc(C(C)(C)C)c1.Cl [Example 1-7]
7 | > 6.00 | Cc1cc(Oc2ccc([N+](=O)[O-])cc2S(=O)(=O)N2CCNCC2)cc(C(C)C)c1.Cl [Example 1-8]
8 | > 6.00 | CC(C)c1cccc(Oc2ccc([N+](=O)[O-])cc2S(=O)(=O)N2CCNCC2)c1.Cl [Example 1-9]
9 | 5.00 to 6.00 | Cl.N#Cc1cccc(Oc2ccc([N+](=O)[O-])cc2S(=O)(=O)N2CCNCC2)c1 [Example 1-10]
10 | > 6.00 | Cl.O=[N+]([O-])c1ccc(Oc2cccc3ccccc23)c(S(=O)(=O)N2CCNCC2)c1 [Example 1-11]
11 | 5.00 to 6.00 | Cc1ccccc1Oc1ccc([N+](=O)[O-])cc1S(=O)(=O)N1CCNCC1.Cl [Example 1-12]
12 | < 5.00 | Cl.Cl.Cl.Nc1ccc(Oc2ccc([N+](=O)[O-])cc2S(=O)(=O)N2CCNCC2)cc1 [Example 1-13]
13 | 5.00 to 6.00 | O=[N+]([O-])c1ccc(Oc2ccccc2)c(S(=O)(=O)N2CCNCC2)c1 [Example 1-18]
14 | < 5.00 | COc1ccc(Oc2ccc([N+](=O)[O-])cc2S(=O)(=O)N2CCNCC2)cc1 [Example 1-19]
15 | < 5.00 | O=[N+]([O-])c1ccc(Oc2ccc(F)cc2)c(S(=O)(=O)N2CCNCC2)c1 [Example 1-20]
16 | < 5.00 | CC(C)(C)c1ccc(Oc2ccc([N+](=O)[O-])cc2S(=O)(=O)N2CCNCC2)cc1 [Example 1-21]
17 | < 5.00 | O=[N+]([O-])c1ccc(Oc2ccc(Cl)cc2)c(S(=O)(=O)N2CCNCC2)c1 [Example 1-22]
18 | > 6.00 | O=[N+]([O-])c1ccc(Oc2cccc(F)c2)c(S(=O)(=O)N2CCNCC2)c1 [Example 1-25]
19 | > 6.00 | COc1ccccc1Oc1ccc([N+](=O)[O-])cc1S(=O)(=O)N1CCNCC1.Cl [Example 1-27]
20 | > 6.00 | Cl.O=[N+]([O-])c1ccc(Oc2ccccc2Cl)c(S(=O)(=O)N2CCNCC2)c1 [Example 1-28]
21 | 5.00 to 6.00 | N#Cc1ccccc1Oc1ccc([N+](=O)[O-])cc1S(=O)(=O)N1CCNCC1 [Example 1-29]
22 | < 5.00 | CC(=O)c1ccccc1Oc1ccc([N+](=O)[O-])cc1S(=O)(=O)N1CCNCC1.Cl [Example 1-30]

Row | pIC50 | Compound
23 | < 5.00 | CC(=O)c1cccc(Oc2ccc([N+](=O)[O-])cc2S(=O)(=O)N2CCNCC2)c1.Cl [Example 1-31]
24 | 5.00 to 6.00 | CN(C)c1cccc(Oc2ccc([N+](=O)[O-])cc2S(=O)(=O)N2CCNCC2)c1.Cl [Example 1-32]
25 | > 6.00 | Cl.O=[N+]([O-])c1ccc(Oc2cc(Cl)cc(Cl)c2)c(S(=O)(=O)N2CCNCC2)c1 [Example 1-33]
26 | > 6.00 | Cc1cc(C)cc(Oc2ccc(S(C)(=O)=O)cc2S(=O)(=O)N2CCNCC2)c1.Cl [Example 1-35]
27 | > 6.00 | CC(C)(C)c1cccc(Oc2ccc([N+](=O)[O-])cc2S(=O)(=O)N2CCNCC2)c1.Cl [Example 1-36]
28 | > 6.00 | COc1cc(C)cc(Oc2ccc([N+](=O)[O-])cc2S(=O)(=O)N2CCNCC2)c1.Cl [Example 1-37]
29 | > 6.00 | Cl.O=[N+]([O-])c1cccc(Oc2ccc([N+](=O)[O-])cc2S(=O)(=O)N2CCNCC2)c1 [Example 1-38]
30 | > 6.00 | Cl.O=[N+]([O-])c1ccc(Oc2cccc(Br)c2)c(S(=O)(=O)N2CCNCC2)c1 [Example 1-39]
31 | > 6.00 | CCCCc1ccccc1Oc1ccc([N+](=O)[O-])cc1S(=O)(=O)N1CCNCC1.Cl [Example 1-40]
32 | 5.00 to 6.00 | Cc1cc(C)cc(Oc2ccccc2S(=O)(=O)N2CCNCC2)c1.Cl [Example 1-41]
33 | < 5.00 | Cc1cc(C)cc(Oc2ccc(C(=O)N3CCNCC3)cc2S(=O)(=O)N2CCNCC2)c1.Cl.Cl [Example 1-42]
34 | > 6.00 | Cc1cc(C)cc(Oc2ccc(C(F)(F)F)cc2S(=O)(=O)N2CCNCC2)c1.Cl [Example 1-43]
35 | 5.00 to 6.00 | Cc1cc(C)cc(Oc2cc(C)c([N+](=O)[O-])cc2S(=O)(=O)N2CCNCC2)c1.Cl [Example 1-44]
36 | > 6.00 | Cc1cc(Oc2cc(Cl)cc(Cl)c2)c(S(=O)(=O)N2CCNCC2)cc1[N+](=O)[O-].Cl [Example 1-45]
37 | < 5.00 | Cc1cc(C)cc(Oc2cc(C(F)(F)F)ccc2S(=O)(=O)N2CCNCC2)c1.Cl [Example 1-46]
38 | < 5.00 | COc1cc(Oc2cc(C)cc(C)c2)c(S(=O)(=O)N2CCNCC2)cc1[N+](=O)[O-].Cl [Example 1-47]
39 | > 6.00 | O=[N+]([O-])c1ccc(Oc2cc(Cl)cc(Cl)c2)c(S(=O)(=O)N2CC3CCCNC3C2)c1 (stereo not shown) [Example 1-48]
40 | > 6.00 | Cl.O=S(=O)(c1cc(F)ccc1Oc1cc(Cl)cc(Cl)c1)N1CCNCC1 [Example 1-51]
41 | > 6.00 | Cc1cc(C)cc(Oc2ccc([N+](=O)[O-])cc2S(=O)(=O)N2CC(C)NCC2C)c1.Cl (stereo not shown) [Example 1-54]
42 | > 6.00 | Cl.O=S(=O)(c1cc(Cl)ccc1Oc1cc(Cl)cc(Cl)c1)N1CCNCC1 [Example 1-56]
43 | > 6.00 | Cl.O=S(=O)(c1cc(Br)ccc1Oc1cc(Cl)cc(Cl)c1)N1CCNCC1 [Example 1-57]
44 | 5.00 to 6.00 | Cc1cc(Oc2ccc([N+](=O)[O-])cc2S(=O)(=O)N2CCNCC2)ccc1Cl.Cl [Example 1-60]

Row | pIC50 | Compound
45 | 5.00 to 6.00 | Cc1ccc(C)c(Oc2ccc([N+](=O)[O-])cc2S(=O)(=O)N2CCNCC2)c1C.Cl [Example 1-61]
46 | > 6.00 | Cc1cccc(Oc2ccc([N+](=O)[O-])cc2S(=O)(=O)N2CCNCC2)c1C.Cl [Example 1-62]
47 | > 6.00 | Cc1ccc(Oc2ccc([N+](=O)[O-])cc2S(=O)(=O)N2CCNCC2)cc1C.Cl [Example 1-63]
48 | > 6.00 | Cc1ccc(C)c(Oc2ccc([N+](=O)[O-])cc2S(=O)(=O)N2CCNCC2)c1.Cl [Example 1-64]
49 | > 6.00 | Cc1cc(C)c(C)c(Oc2ccc([N+](=O)[O-])cc2S(=O)(=O)N2CCNCC2)c1.Cl [Example 1-65]
50 | 5.00 to 6.00 | Cc1ccc(C(C)C)c(Oc2ccc([N+](=O)[O-])cc2S(=O)(=O)N2CCNCC2)c1.Cl [Example 1-66]
51 | > 6.00 | Cl.O=[N+]([O-])c1ccc(Oc2c(F)c(F)cc(F)c2F)c(S(=O)(=O)N2CCNCC2)c1 [Example 1-74]
52 | > 6.00 | O=[N+]([O-])c1ccc(Oc2cc(Br)cc(Br)c2)c(S(=O)(=O)N2CCNCC2)c1 [Example 1-76]
53 | > 6.00 | Cl.O=[N+]([O-])c1ccc(Oc2cc(Cl)cc(Cl)c2F)c(S(=O)(=O)N2CCNCC2)c1 [Example 1-77]
54 | > 6.00 | Cc1cc(Oc2ccc([N+](=O)[O-])cc2S(=O)(=O)N2CCNCC2)cc(C)c1Cl [Example 1-79]
55 | > 6.00 | Cc1ccc(Cl)c(Oc2ccc([N+](=O)[O-])cc2S(=O)(=O)N2CCNCC2)c1 [Example 1-80]
56 | < 5.00 | Cc1cc(Oc2ccc([N+](=O)[O-])cc2S(=O)(=O)N2CCNCC2)c(C(C)C)cc1Cl [Example 1-81]
57 | > 6.00 | O=[N+]([O-])c1ccc(Oc2cc(Cl)ccc2Cl)c(S(=O)(=O)N2CCNCC2)c1 [Example 1-84]
58 | > 6.00 | Cl.O=[N+]([O-])c1ccc(Oc2cc(Cl)cc(Cl)c2Cl)c(S(=O)(=O)N2CCNCC2)c1 [Example 1-86]
59 | > 6.00 | O=C(O)C1CNCCN1S(=O)(=O)c1cc([N+](=O)[O-])ccc1Oc1cc(Cl)cc(Cl)c1 (stereo not shown) [Example 1-87]
60 | > 6.00 | Cc1cc(C)cc(Oc2ccc([N+](=O)[O-])cc2S(=O)(=O)N2CCN(CCO)CC2)c1 [Example 1-88]
61 | > 6.00 | Cc1cc(C)cc(Oc2ccc([N+](=O)[O-])cc2S(=O)(=O)N2CCN(CCOCCO)CC2)c1 [Example 1-89]
62 | > 6.00 | Cc1cc(C)cc(Oc2ccc([N+](=O)[O-])cc2S(=O)(=O)N2CCCNCC2)c1 [Example 1-90]
63 | > 6.00 | Cl.O=[N+]([O-])c1ccc(Oc2cc(Cl)cc(Cl)c2)c(S(=O)(=O)N2CCCNCC2)c1 [Example 1-91]
64 | > 6.00 | Cc1cc(C)cc(Oc2ccc([N+](=O)[O-])cc2S(=O)(=O)N2CC(C)NC(C)C2)c1 (stereo not shown) [Example 1-92]
65 | > 6.00 | CC1CN(S(=O)(=O)c2cc([N+](=O)[O-])ccc2Oc2cc(Cl)cc(Cl)c2)CC(C)N1 (stereo not shown) [Example 1-93]
66 | > 6.00 | Cl.N[C@H]1CCN(S(=O)(=O)c2cc([N+](=O)[O-])ccc2Oc2cc(Cl)cc(Cl)c2)C1 [Example 1-100]

Row | Compound | pIC50
67 | Cl.O=[N+]([O-])c1ccc(Oc2cccc(C(F)(F)F)c2)c(S(=O)(=O)N2CCNCC2)c1 [Example 1-34] | > 6.00
